A word on the logD: it is the decadic logarithm of the distribution of all forms, ionised or not, between an organic phase and buffer at a given pH. Low readings indicate lower lipophilicity, high ones higher lipophilicity. What is called half-life is the time in which the quantity being followed falls by half. High values mean slow decline, low ones rapid decline. As usually defined, the AUC(0-inf) is total exposure, with the tail of the curve extrapolated. As usually defined, the bioavailability is the share of a dose that reaches the circulation, judged against a reference dose that is usually intravenous. Broadly, the Papp A→B is how fast a substance crosses the layer from the apical side. Usually Cmax stands for the maximum level reached in the sampled fluid or tissue.

Here are results for 35 molecules from ChEMBL document CHEMBL2150966, “Discovery of a novel series of potent and orally bioavailable phosphoinositide 3-kinase γ inhibitors” (J Med Chem, 2012).

A short description of data set [1]: Plasma concentration in C57BL6 mouse at 100 mg/kg, po after 1 hr. The format is ADME, organism-based. The arrangement: dose 100 mg/kg, route oral.
A short description of data set [2]: Plasma concentration in C57BL6 mouse at 100 mg/kg, po after 4 hr. The arrangement: dose 100 mg/kg, route oral. It counts as ADME, organism-based.
Data set [3] is described as follows: Kinetic solubility of compound in PBS at pH 7.4. It counts as physicochemical. The conditions noted are these: read-out: Kinetic_solubility.
Data set [4] in a line: Lipophilicity of compound, Log D. It counts as physicochemical. The conditions noted are these: octanol/water.
Data set [5] can be described thus: Drug metabolism in mouse liver microsome assessed as compound oxidation after 30 mins. The format is ADME. The conditions noted are these: liver microsomes, read-out: Drug metabolism. In general terms: Liver microsomes are a subcellular fraction often used to study metabolism.
Data set [6] can be described thus: Half life in Sprague-Dawley rat at 5 mg/kg, po. The format is ADME, organism-based. The conditions noted are these: in vivo. The arrangement: dose 5 mg/kg, route oral.
A short description of data set [7]: AUC (0 to infinity) in Sprague-Dawley rat at 5 mg/kg, po. Particulars: plasma. The format is ADME, organism-based. More on the design: time infinity, dose 5 mg/kg, route oral.
Data set [8] can be described thus: Oral bioavailability Sprague-Dawley rat at 5 mg/kg. The conditions noted are these: in vivo. The format is ADME, organism-based.
Data set [9] is described as follows: Apparent permeability across apical to basolateral side of MDCK cells. It counts as ADME, cell-based, Canis lupus familiaris. The conditions noted are these: dog.
A further data set in a line: in vivo. The conditions noted are these: BALB/c, mouse, plasma, po, 100 mg/kg.
A short description of data set [10]: Cmax in Sprague-Dawley rat at 5 mg/kg, po. The conditions noted are these: in vivo. The format is ADME, organism-based. More on the design: dose 5 mg/kg, route oral.

In brackets after ≈: the same amount, converted by molar mass.

As for `COc1ccc(-c2cccc(S(=O)(=O)N3CCN(c4nccnc4-c4ccc(OC)cc4)CC3)c2)cc1`, in data set [1], the concentration at 1 h was determined as 0.5 µM. Moreover, in [2], the concentration at 4 h was 0.1 µM.

As to `CNC(=O)c1nc(-c2cccc(-c3nnn[nH]3)c2)cnc1N`, in [3], the solubility kinetic is 424 µM (≈ 126 µg/mL). This molecule registered a logD in data set [4] of 0.47.

As for `CC(C)c1ccc(-c2nccnc2N2CCN(S(=O)(=O)c3cccc(-c4cnc(N)nc4)c3)CC2)cc1`, the concentration at 1 h in data set [1] was determined as 0.7 µM. The molecule further came in with a concentration at 4 h in [2] of 0.1 µM. The metabolised at 0.5 h in data set [5] is 79%.

`CC(C)c1ccc(-c2ncccc2N2CCN(S(=O)(=O)c3cccc(-c4cnc(N)nc4)c3)CC2)cc1`: the half-life in data set [6] is 109 min. This molecule registered an AUC(0-inf) in [7] of 0.9 µM·h. Further, the concentration at 1 h in [1] came out at 12.9 µM. In [2], the concentration at 4 h came to 3.2 µM. In [3], the solubility kinetic was under 5 µM. Also, in data set [4], the logD was over 4. The metabolised at 0.5 h in [5] came out at 37%. The bioavailability in data set [8] amounted to 12.7%.

As to `CNC(=O)c1nc(-c2cccc(S(=O)(=O)Nc3ccccc3)c2)cnc1N`, in data set [9], the apical-to-basolateral permeability (Papp A→B) came out at 10 ×10⁻⁶ cm/s.

Turning to `CNC(=O)c1nc(-c2ccc(Cl)c(S(=O)(=O)Nc3ccccc3)c2)cnc1N`, the apical-to-basolateral permeability (Papp A→B) in data set [9] stood at 10 ×10⁻⁶ cm/s.

For the molecule `CNC(=O)c1nc(-c2ccc(Cl)c(S(=O)(=O)NC)c2)cnc1N`, the Papp A→B in data set [9] turned out to be 10 ×10⁻⁶ cm/s.

For `CNC(=O)c1nc(-c2ccc(Cl)c(S(N)(=O)=O)c2)cnc1N`, the Papp A→B in data set [9] worked out at 10 ×10⁻⁶ cm/s.

Regarding `CNC(=O)c1nc(-c2ccc(Cl)c(S(=O)(=O)NCC(F)(F)F)c2)cnc1N`, in data set [3], the solubility kinetic was 211 µM (≈ 89.4 µg/mL). The Papp A→B in data set [9] was determined as 10 ×10⁻⁶ cm/s.

For the molecule `CNC(=O)c1nc(-c2ccc(OC)c(S(=O)(=O)Nc3ccccc3)c2)cnc1N`, the Papp A→B in data set [9] was 10 ×10⁻⁶ cm/s.

Turning to `CNC(=O)c1nc(-c2ccc(F)c(S(=O)(=O)Nc3ccccc3)c2)cnc1N`, the Papp A→B in data set [9] came out at 10 ×10⁻⁶ cm/s.

Regarding `CNC(=O)c1nc(-c2cnc(N)c(S(=O)(=O)Nc3ccccc3)c2)cnc1N`, the Papp A→B in data set [9] is 10 ×10⁻⁶ cm/s.

Turning to `CNC(=O)c1nc(-c2cccc(NS(=O)(=O)c3ccccc3)c2)cnc1N`, in data set [9], the Papp A→B worked out at 10 ×10⁻⁶ cm/s.

For the molecule `CNC(=O)c1nc(-c2cccc(NS(=O)(=O)c3cccc(Cl)c3)c2)cnc1N`, the Papp A→B in data set [9] came to 10 ×10⁻⁶ cm/s.

On to `CNC(=O)c1nc(-c2ccc(Cl)c(NS(=O)(=O)c3cccc(Cl)c3)c2)cnc1N`, for which the Papp A→B in data set [9] amounted to 10 ×10⁻⁶ cm/s.

With `CNC(=O)c1nc(-c2ccc(Cl)c(S(=O)(=O)Nc3cccc(C)c3)c2)cnc1N`, the Papp A→B in [9] is 10 ×10⁻⁶ cm/s.

In the case of `CNC(=O)c1nc(-c2ccc(Cl)c(S(=O)(=O)Nc3cccc(F)c3)c2)cnc1N`, the concentration at 1 h in [1] was 1.6 µM. The concentration at 4 h in data set [2] amounted to 1 µM. The apparent permeability from apical to basolateral (Papp A→B) in data set [9] came to 10 ×10⁻⁶ cm/s.

As for `CNC(=O)c1nc(-c2ccc(Cl)c(S(=O)(=O)Nc3cccc(OC)c3)c2)cnc1N`, the concentration at 1 h in data set [1] is 0.7 µM. This molecule yielded a concentration at 4 h in data set [2] of 0.09 µM. Besides, in [9], the Papp A→B amounted to 10 ×10⁻⁶ cm/s.

Consider `CNC(=O)c1nc(-c2ccc(Cl)c(S(=O)(=O)Nc3cccc(C(F)(F)F)c3)c2)cnc1N`, for which the concentration at 1 h in data set [1] was found to be 1.7 µM. The molecule further gave a concentration at 4 h in [2] of 0.4 µM. Besides, the Papp A→B in data set [9] turned out to be 10 ×10⁻⁶ cm/s.

For the molecule `CNC(=O)c1nc(-c2ccc(Cl)c(S(=O)(=O)Nc3cccc(Cl)c3)c2)cnc1N`, the concentration at 1 h in data set [1] was determined as 1.3 µM. Further, the concentration at 4 h in data set [2] turned out to be 0.1 µM. Also, in data set [3], the solubility kinetic is under 1 µM. Besides, the Papp A→B in data set [9] amounted to 10 ×10⁻⁶ cm/s.

In data set [1], `CNC(=O)c1nc(-c2ccc(Cl)c(S(=O)(=O)Nc3ccccc3Cl)c2)cnc1N` displayed a concentration at 1 h of 59.1 µM. In data set [2], the concentration at 4 h worked out at 9.6 µM. The solubility kinetic in data set [3] turned out to be 24 µM (≈ 10.9 µg/mL). Also, in data set [9], the Papp A→B was found to be 10 ×10⁻⁶ cm/s.

As to `CNC(=O)c1nc(-c2ccc(Cl)c(S(=O)(=O)Nc3ccc(Cl)cc3)c2)cnc1N`, the Papp A→B in data set [9] was 10 ×10⁻⁶ cm/s.

`CNC(=O)c1nc(-c2cccc(S(=O)(=O)Nc3cccc(Cl)c3)c2)cnc1N` came in with a concentration at 1 h in data set [1] of 0.6 µM. In [2], the concentration at 4 h amounted to 0.4 µM. For the same molecule, the Papp A→B in [9] is 10 ×10⁻⁶ cm/s.

In [1], `CNC(=O)c1nc(-c2ccc(Cl)c(S(=O)(=O)Nc3ccc(F)cc3Cl)c2)cnc1N` had a concentration at 1 h of 64.8 µM. For the same molecule, the figures for the concentration at 4 h (in [2]; in “in vivo”) were 19.2 µM and 20.3 µM, respectively. The Papp A→B in data set [9] amounted to 10 ×10⁻⁶ cm/s.

Molecule `CNC(=O)c1nc(-c2ccc(Cl)c(S(=O)(=O)Nc3cccc(F)c3Cl)c2)cnc1N` displayed a concentration at 1 h in data set [1] of 237 µM. For the same molecule, the concentration at 4 h in data set [2] stood at 39.8 µM. Besides, in data set [9], the Papp A→B was 10 ×10⁻⁶ cm/s.

Turning to `CNC(=O)c1nc(-c2ccc(Cl)c(S(=O)(=O)Nc3ccc(Cl)cc3Cl)c2)cnc1N`, the concentration at 1 h in data set [1] was 21.3 µM. Also, the concentration at 4 h in data set [2] was 8.6 µM; in the data set “in vivo”, 6.5 µM. Moreover, the Papp A→B in data set [9] worked out at 10 ×10⁻⁶ cm/s.

As for `CNC(=O)c1nc(-c2ccc(Cl)c(S(=O)(=O)Nc3cccc(Cl)c3Cl)c2)cnc1N`, the concentration at 1 h in data set [1] came out at 173 µM. Also, the concentration at 4 h in data set [2] came out at 22.1 µM. Moreover, the Papp A→B in data set [9] came out at 10 ×10⁻⁶ cm/s.

For the molecule `CNC(=O)c1nc(-c2cccc(S(=O)(=O)Nc3cccc(F)c3F)c2)cnc1N`, the Papp A→B in data set [9] was determined as 10 ×10⁻⁶ cm/s.

`CNC(=O)c1nc(-c2ccc(Cl)c(S(=O)(=O)Nc3cccc(F)c3F)c2)cnc1N` gave a half-life in [6] of 266 min. Further, the AUC(0-inf) in [7] stood at 449 µM·h. In [1], this molecule had a concentration at 1 h of 333 µM. Moreover, the concentration at 4 h in [2] was 119 µM; in the data set “in vivo” it was 43.1 µM. The solubility kinetic in [3] worked out at 176 µM (≈ 79.9 µg/mL). For the same molecule, the Papp A→B in data set [9] amounted to 55 ×10⁻⁶ cm/s. The bioavailability in data set [8] came to 76.7%. The molecule further had a Cmax in data set [10] of 42.5 µM.

Molecule `CNC(=O)c1nc(-c2ccc(Cl)c(S(=O)(=O)Nc3cccc(F)c3C)c2)cnc1N` gave a half-life in data set [6] of 125 min. Besides, the AUC(0-inf) in data set [7] is 26.8 µM·h. Also, the concentration at 1 h in data set [1] is 13.1 µM. Further, the concentration at 4 h in data set [2] was found to be 6.2 µM; in “in vivo” it was 9.2 µM. In data set [9], the apical-to-basolateral permeability (Papp A→B) was determined as 10 ×10⁻⁶ cm/s. In data set [8], the bioavailability came out at 66.2%. In [10], this molecule gave a Cmax of 9.1 µM.

`Nc1cnc(-c2ccc(Cl)c(S(=O)(=O)Nc3cccc(F)c3F)c2)cn1`: the apparent permeability from apical to basolateral (Papp A→B) in data set [9] was 10 ×10⁻⁶ cm/s.

`Nc1ncc(-c2ccc(Cl)c(S(=O)(=O)Nc3cccc(F)c3F)c2)cn1`: in data set [9], the Papp A→B was determined as 10 ×10⁻⁶ cm/s.

Regarding `COc1nc(N)ncc1-c1ccc(Cl)c(S(=O)(=O)Nc2cccc(F)c2F)c1`, the apparent permeability from apical to basolateral (Papp A→B) in data set [9] was 10 ×10⁻⁶ cm/s.

In the case of `Nc1ncc(-c2ccc(Cl)c(S(=O)(=O)Nc3cccc(F)c3F)c2)c(OCC(F)(F)F)n1`, the apical-to-basolateral permeability (Papp A→B) in data set [9] is 10 ×10⁻⁶ cm/s.

`CS(=O)(=O)N1CCN(Cc2cc3nc(-c4cccc5[nH]ncc45)nc(N4CCOCC4)c3s2)CC1` [PICTILISIB]: the concentration at 4 h in the data set “in vivo” came to 5.3 µM.
